Our source for the TGI and GI50 values is PubChem BioAssay (NCI).

Several values for one entry are separate records, joined by “and”; a condition that tells them apart may be missing. Equal values may be shown once.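 Values below derive from 48-hour exposures of cells grown in 96-well plates, with endpoints linearly interpolated between the two concentrations bracketing the appropriate inhibition level. Here, GI50 denotes the concentration required for 50% inhibition of growth. TGI is the concentration that stops growth completely.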

Test systems include TK-10 renal; EKVX NSCLC; SR leukemia; OVCAR-4 ovarian; CCRF-CEM leukemia; UACC-62 melanoma; COLO 205 colon; K-562 leukemia; HCC-2998 colon; HCT-15 colon.
What all share (test): growth of human tumour cells (NCI), 48 h

Take `CCOC(=O)C1SC(=Nc2ccc(C)c(C)c2)N=C1C` (centres undefined): the TGI with TK-10 renal, with EKVX NSCLC, with SR leukemia, with OVCAR-4 ovarian, with CCRF-CEM leukemia and in the experiment on UACC-62 melanoma was over 100 µM throughout. Besides, the TGI in the experiment on COLO 205 colon, with K-562 leukemia, in the experiment with HCC-2998 colon and with HCT-15 colon was over 100 µM throughout.
In the case of `COc1ccc(/C=C/c2c(C(=O)/C=C/c3ccccc3)c(C)nc3ccccc23)cc1`, the GI50 with TK-10 renal is 2.55 µM; with EKVX NSCLC it was 1.77 µM; with SR leukemia it was 1.56 µM; in the experiment on OVCAR-4 ovarian, 2.27 µM; in the experiment with CCRF-CEM leukemia, 2.33 µM; with UACC-62 melanoma, 1.61 µM. In addition, the GI50 was 1.76 µM with COLO 205 colon, 2.33 µM with K-562 leukemia, 1.88 µM in the experiment with HCC-2998 colon and 1.38 µM in the experiment with HCT-15 colon. Besides, the TGI in the experiment on TK-10 renal is 5.73 µM; in the experiment on EKVX NSCLC it was 3.56 µM; in the experiment on SR leukemia, 7.19 µM; in the experiment on OVCAR-4 ovarian, 6.85 µM; in the experiment with CCRF-CEM leukemia, over 100 µM; with UACC-62 melanoma, 3.11 µM. In addition, the TGI with COLO 205 colon came out at 3.5 µM; with K-562 leukemia, 7.19 µM; in the experiment on HCC-2998 colon it was 3.48 µM; in the experiment with HCT-15 colon, 3.77 µM.
For the compound `CN(C)CCNc1ccc(CO)c2oc3ccc(O)cc3c(=O)c12`, the TGI with TK-10 renal stood at 69 µM; in the experiment on EKVX NSCLC, 47.5 µM; in the experiment with SR leukemia, 4.36 µM; with OVCAR-4 ovarian, 28.7 µM; in the experiment with CCRF-CEM leukemia, 34.1 µM; with UACC-62 melanoma it was 25 µM. Besides, the TGI amounted to 21.6 µM in the experiment on COLO 205 colon, 32.4 µM with K-562 leukemia, 27.9 µM with HCC-2998 colon and 29.9 µM with HCT-15 colon.
Turning to `O=C(/C=C/c1ccc(Cl)c(Cl)c1)c1ccc2ccccc2c1`, the TGI in the experiment with TK-10 renal, in the experiment with EKVX NSCLC, in the experiment with SR leukemia, with OVCAR-4 ovarian, with CCRF-CEM leukemia and with UACC-62 melanoma was over 100 µM in each case. Moreover, the TGI was 28.7 µM in the experiment on COLO 205 colon, over 100 µM in the experiment with K-562 leukemia, over 100 µM in the experiment on HCC-2998 colon and over 100 µM in the experiment with HCT-15 colon.
`COc1cc(Cc2nccc3cc(OC)c(OC)cc23)c(C(C)=O)cc1OC`: the TGI is 341 µM in the experiment with TK-10 renal; 295 µM in the experiment with EKVX NSCLC; over 750 µM in the experiment on SR leukemia; 52.3 µM and 197 µM in the experiment with OVCAR-4 ovarian; 98.2 µM and 63 µM with CCRF-CEM leukemia; 219 µM and > 750 µM in the experiment on UACC-62 melanoma. Further, the TGI is 40.1 µM and 300 µM with COLO 205 colon; 300 µM with K-562 leukemia; 300 µM and > 750 µM in the experiment on HCC-2998 colon; 300 µM and > 750 µM in the experiment with HCT-15 colon. In addition, the GI50 is 13.2 µM with OVCAR-4 ovarian; 15.4 µM and 16.2 µM in the experiment with CCRF-CEM leukemia; 5.36 µM in the experiment on COLO 205 colon; 37.6 µM and 194 µM with K-562 leukemia; 195 µM and 249 µM in the experiment on HCT-15 colon.
In the case of `C/C(=N\Nc1ccc(Cl)cn1)c1ccc2ccccc2n1`, the GI50 was 6.31 µM in the experiment on TK-10 renal; 2.6 µM in the experiment on EKVX NSCLC; 1.68 µM in the experiment with SR leukemia; 1.52 µM in the experiment with OVCAR-4 ovarian; 0.513 µM in the experiment on CCRF-CEM leukemia; 3.25 µM in the experiment with UACC-62 melanoma. The GI50 in the experiment with COLO 205 colon was 2.98 µM; in the experiment with K-562 leukemia, 3.13 µM; in the experiment with HCC-2998 colon, 3.23 µM; in the experiment with HCT-15 colon it was 0.64 µM. Besides, the TGI in the experiment on TK-10 renal was over 100 µM; in the experiment with EKVX NSCLC, over 100 µM; with SR leukemia it was 36.1 µM; in the experiment on OVCAR-4 ovarian it was over 100 µM; in the experiment on CCRF-CEM leukemia, over 100 µM; with UACC-62 melanoma, over 100 µM. Besides, the TGI in the experiment on COLO 205 colon, in the experiment with K-562 leukemia, in the experiment on HCC-2998 colon and in the experiment with HCT-15 colon was over 100 µM each time.
For `Cc1cc(NS(=O)(=O)c2ccc(Nc3c4ccccc4nc4c(C(=O)N5CCN(CCO)CC5)cccc34)cc2)no1`, the TGI in the experiment on TK-10 renal, in the experiment with EKVX NSCLC, with SR leukemia, in the experiment with OVCAR-4 ovarian, with CCRF-CEM leukemia and in the experiment on UACC-62 melanoma was over 100 µM in each case. Moreover, the TGI in the experiment with COLO 205 colon, with K-562 leukemia, in the experiment with HCC-2998 colon and in the experiment on HCT-15 colon was over 100 µM in each case.
As to `O=c1cc(NCC(O)CN2CCCC2)n(Cc2ccccc2)c(=O)n1Cc1ccccc1` (centres undefined), the GI50 is over 100 µM with TK-10 renal; over 100 µM in the experiment with EKVX NSCLC; 0.847 µM in the experiment with SR leukemia; 58.3 µM in the experiment on OVCAR-4 ovarian; 28.1 µM in the experiment with CCRF-CEM leukemia; 20.9 µM with UACC-62 melanoma. Further, the GI50 with COLO 205 colon was 19.3 µM; in the experiment on K-562 leukemia it was 25.2 µM; in the experiment on HCC-2998 colon, 25.8 µM; in the experiment on HCT-15 colon, 50.9 µM. Also, the TGI in the experiment with TK-10 renal is over 100 µM; with EKVX NSCLC, over 100 µM; in the experiment with SR leukemia, 31 µM; with OVCAR-4 ovarian it was over 100 µM; in the experiment with CCRF-CEM leukemia, 80.6 µM; in the experiment on UACC-62 melanoma, 47.3 µM. Further, the TGI was 40.4 µM in the experiment with COLO 205 colon, 60.5 µM with K-562 leukemia, 77.7 µM in the experiment on HCC-2998 colon and over 100 µM in the experiment on HCT-15 colon.
As for `CCc1nc2cc(F)c(/C=C/C(=O)NO)cc2c(=O)n1CCc1ccccc1`, the GI50 with TK-10 renal is 0.256 µM; in the experiment with EKVX NSCLC it was 0.387 µM; in the experiment on SR leukemia it was 0.354 µM; in the experiment on OVCAR-4 ovarian, 0.314 µM; in the experiment on CCRF-CEM leukemia, 0.4 µM; in the experiment on UACC-62 melanoma, 0.235 µM. Further, the GI50 was 0.221 µM in the experiment with COLO 205 colon, 0.303 µM with K-562 leukemia, 0.381 µM with HCC-2998 colon and 0.36 µM in the experiment with HCT-15 colon. Also, the TGI is 0.838 µM in the experiment on TK-10 renal; 15.7 µM in the experiment with EKVX NSCLC; 53.3 µM with SR leukemia; 14.9 µM in the experiment on OVCAR-4 ovarian; over 100 µM in the experiment with CCRF-CEM leukemia; 0.699 µM with UACC-62 melanoma. Further, the TGI in the experiment on COLO 205 colon is 0.537 µM; in the experiment on K-562 leukemia it was over 100 µM; in the experiment with HCC-2998 colon, 12.7 µM; with HCT-15 colon, 18.6 µM.
As to `N#Cc1cc(-c2cc3ccccc3o2)oc1N`, the GI50 in the experiment on TK-10 renal is 6.61 µM; with EKVX NSCLC, 2.83 µM; in the experiment with SR leukemia, 0.764 µM; in the experiment with OVCAR-4 ovarian it was 3.23 µM; in the experiment with CCRF-CEM leukemia, 3.72 µM; with UACC-62 melanoma, 3.79 µM. Also, the GI50 in the experiment with COLO 205 colon was 2.06 µM; in the experiment on K-562 leukemia, 3.58 µM; in the experiment on HCC-2998 colon, 4.92 µM; with HCT-15 colon, 3.35 µM. Further, the TGI in the experiment on TK-10 renal amounted to 34.8 µM; in the experiment on EKVX NSCLC it was 14.1 µM; in the experiment on SR leukemia, 3.1 µM; in the experiment with OVCAR-4 ovarian, 40.6 µM; in the experiment on CCRF-CEM leukemia, 21.2 µM; in the experiment with UACC-62 melanoma it was 17.2 µM. Besides, the TGI in the experiment with COLO 205 colon was 4.74 µM; with K-562 leukemia, over 100 µM; in the experiment with HCC-2998 colon, 18.9 µM; with HCT-15 colon it was 13 µM.
Turning to `COc1ccc(C(=O)c2cc(C)c(OC)c(C)c2)cc1OC(=O)CCl`, the GI50 in the experiment with TK-10 renal is 34.7 µM; in the experiment on EKVX NSCLC, 0.0928 µM; with SR leukemia, under 0.01 µM; in the experiment on OVCAR-4 ovarian it was 0.866 µM; in the experiment on CCRF-CEM leukemia, under 0.01 µM; in the experiment on UACC-62 melanoma, 0.0402 µM. Further, the GI50 was 0.751 µM in the experiment on COLO 205 colon, under 0.01 µM in the experiment with K-562 leukemia, 0.0391 µM with HCC-2998 colon and under 0.01 µM with HCT-15 colon. In addition, the TGI in the experiment with TK-10 renal, with EKVX NSCLC, with SR leukemia, with OVCAR-4 ovarian, with CCRF-CEM leukemia and with UACC-62 melanoma was over 100 µM in each case. Besides, the TGI in the experiment on COLO 205 colon is 18.8 µM; with K-562 leukemia, over 100 µM; in the experiment on HCC-2998 colon, over 79.2 µM; in the experiment with HCT-15 colon, over 100 µM.
As for `Cc1cc2nc(C=C(C(F)(F)F)C(F)(F)F)oc2cc1C`, the TGI is 5.16 µM with TK-10 renal; 8.05 µM in the experiment with EKVX NSCLC; over 10 µM in the experiment on SR leukemia; 7.78 µM in the experiment with OVCAR-4 ovarian; 6.74 µM in the experiment on CCRF-CEM leukemia; over 10 µM in the experiment with UACC-62 melanoma. Further, the TGI in the experiment on COLO 205 colon came out at 0.392 µM; in the experiment with K-562 leukemia, 5.1 µM; with HCC-2998 colon, 6.9 µM; in the experiment with HCT-15 colon, 9.62 µM.
Regarding `COc1ccc(C(=O)c2cc(C)c(OC)c(C)c2)c(OC)c1O`, the GI50 in the experiment on TK-10 renal was 25 µM; in the experiment with EKVX NSCLC, 0.238 µM; with OVCAR-4 ovarian, 0.415 µM; in the experiment with CCRF-CEM leukemia it was 0.0323 µM; in the experiment with UACC-62 melanoma it was 0.638 µM; with COLO 205 colon, 7.77 µM. Also, the GI50 with K-562 leukemia is 0.0236 µM; in the experiment with HCC-2998 colon it was 0.127 µM; in the experiment on HCT-15 colon, 0.0214 µM. Also, the TGI in the experiment with TK-10 renal, in the experiment with EKVX NSCLC, in the experiment with SR leukemia, in the experiment on OVCAR-4 ovarian, in the experiment on CCRF-CEM leukemia and with UACC-62 melanoma was over 100 µM in each case. For the same compound, the TGI was 28.4 µM with COLO 205 colon, over 100 µM with K-562 leukemia, over 27.4 µM in the experiment with HCC-2998 colon and over 100 µM in the experiment on HCT-15 colon.
As to `CC1=CC(C)(C)N=C2SC(c3ccc(N)cc3)=NN12`, the TGI in the experiment with TK-10 renal is over 100 µM; in the experiment with EKVX NSCLC it was over 100 µM; in the experiment on SR leukemia, over 72.1 µM; with OVCAR-4 ovarian, over 100 µM; in the experiment with CCRF-CEM leukemia, over 72.4 µM; with UACC-62 melanoma, over 100 µM. In addition, the TGI in the experiment on COLO 205 colon was over 61.2 µM; in the experiment on K-562 leukemia, over 66 µM; in the experiment on HCC-2998 colon it was over 100 µM; in the experiment on HCT-15 colon it was over 58.7 µM.
